Experimental data: patent US7829593B2, “Glutamine-containing compositions and a method for increasing blood flow using same” (Ajinomoto Co., Inc., priority 2006, dated 2010)
Where two headings read alike, the source gives them in different places.

What was measured:
[1] = system: blood flow in the capillary vessels of various organs of rats; assay: Changes in blood flow in various organs after oral administration of glutamine to rats (microsphere method); assay type: in vivo, rat; details: for Change in blood flow after administration of amino acid, on the basis of 100% blood flow before administration: male SD rats, 50 mg/kg glutamine into the stomach
Experimental: (a) Glutamine was given to rats and then the changes in blood flow in the capillary vessels of their various organs were determined. (b) Male SD rats having a body weight of about 400 g were subjected to the experiment. (c) The rats were anesthetized by pentobarbital, and catheters were placed in the left ventricle and the right […] of each rat. […] Through the catheter located from the carotid artery to the left ventricle, yellow and red microspheres were each injected before and after the administration of the amino acid solution. […] For the control group, distilled water was administered. (b) Operation: Catheters were inserted into the carotid and femoral arteries of the rats under anesthesia, the microspheres were injected via these catheters, and blood samples were taken. […] After a sufficient interval after the second injection of the microspheres, the rats were euthanized. The muscles, alimentary canals, liver, kidneys, spleen, heart, brain, fat tissue, and abdominal skin were extracted. The microspheres which had collected in each organ were removed and the change in the ratio of the blood flow was calculated from the amounts of microspheres present in each organ.

[2] = system: blood pressure and vascular resistance in humans; details: 78 kg average body weight, cited from earlier work

| Structure (SMILES) | Change in blood flow after administration of amino acid, on the basis of 100% blood flow before administration ([1]; Abdominal skin) | Change in blood flow after administration of amino acid, on the basis of 100% blood flow before administration ([1]; Brain) | Change in blood flow after administration of amino acid, on the basis of 100% blood flow before administration ([1]; Dorsal skin) | Change in blood flow after administration of amino acid, on the basis of 100% blood flow before administration ([1]; Duodenum) | Change in blood flow after administration of amino acid, on the basis of 100% blood flow before administration ([1]; Fat tissues) | Change in blood flow after administration of amino acid, on the basis of 100% blood flow before administration ([1]; Gastrocnemius) | Change in blood flow after administration of amino acid, on the basis of 100% blood flow before administration ([1]; Heart) | Change in blood flow after administration of amino acid, on the basis of 100% blood flow before administration ([1]; Kidney) | Change in blood flow after administration of amino acid, on the basis of 100% blood flow before administration ([1]; Liver) | Change in blood flow after administration of amino acid, on the basis of 100% blood flow before administration ([1]; Soleus) | Change in blood flow after administration of amino acid, on the basis of 100% blood flow before administration ([1]; Spleen) | Blood flow in the capillary vessels (result in words) ([1]; abdominal skin, spleen, liver, heart and brain, rats, 50 mg/kg glutamine) | Effect on blood pressure and vascular resistance ([2]; 6 g arginine intravenously) | Effect on blood pressure and vascular resistance ([2]; 30 g arginine intravenously) |
| --- | --- | --- | --- | --- | --- | --- | --- | --- | --- | --- | --- | --- | --- | --- |
| NC(=O)CC[C@H](N)C(=O)O [Glutamine, glutamine] | 146% | 163% | 154% | 136% | 137% | 105% | 259% | 113% | 226% | 146% | 146% | significant increase in blood flow |  |  |
| N=C(N)NCCC[C@H](N)C(=O)O [arginine] |  |  |  |  |  |  |  |  |  |  |  |  | did not have either effect | lowered blood pressure and vascular resistance |
